# Assays:
# [1] = tested on: Escherichia coli strain ATCC 35421 called "EC21"; experiment: Reference methods, strain EC21; type: cell-based; conditions: for phenotype according to the EUCAST / reference: from reference MIC
# Procedure: A MIC>8 μg/mL can be assigned to this strain with this test, which is also consistent with the results obtained by the reference method.
# [2] = tested on: Escherichia coli strain ATCC 25922 called "EC10"; experiment: Reference methods (bioMérieux ETEST and VITEK card N233), strain EC10; type: cell-based; conditions: for phenotype according to the EUCAST / reference: from reference MIC
# Source text: In order to illustrate the performances obtained accordingly, the average score obtained for all the results that would be obtained with a combination of 5 spectra per concentration (N=5) out of a total set of total acquired spectra of 294 spectra (M=294) is shown in FIG. 4. […] The score indicates the percentage of the test samples that are assigned to a given class by the classifier described above. […] The strain can therefore be described as sensitive according to the invention with a high reliability on the basis of only a few individual bacteria analyses. The result is consistent with the reference methods [BioMérieux products ETEST® (antimicrobial susceptibility testing kit) GM 256 (ref. 412368) and VITEK® card N233 (Gram Negative Susceptibility card; ref. 413117)] which give as a result a MIC=1 μg/mL, which confirms that the bacterium is not resistant according to the EUCAST, its MIC not being strictly above the threshold defined by this organism.
# A MIC comprised between 4 μg/mL and 8 μg/mL can therefore be assigned to this strain according to the assays. This variability to a dilution factor is very frequent in this type of assay, the EUCAST indicates, for example, ranges of MIC variations of [2-8]μg/mL for this strain ATCC 25922 during quality controls of the MIC disc diffusion tests, and is therefore consistent with expected results.
# The detection of an effect for concentrations greater than 0.005 μg/mL is thus observed. An antibiotic effect of ciprofloxacin can therefore be assigned to the strain tested for concentrations greater than 0.005 μg/mL. This test would therefore define a concentration of 0.005 μg/mL as a MIC. A new test could possibly be performed by adding the lowest concentrations between 0 and 0.005 μg/mL if necessary. […] A test performed with a suitable etest (bioMérieux) allows measuring a MIC of 0.008 μg/mL which confirms that the obtained result is in accordance with the reference methods [BioMérieux products ETEST® CI 32 (antimicrobial susceptibility testing kit; ref. 412311) and VITEK® card N233 (Gram Negative Susceptibility card; ref. 413117)].
# E. coli = conditions: cited from earlier work
# [3] = tested on: Escherichia coli strain ATCC 25922 called "EC10"; experiment: Raman spectroscopy analysis of individual bacteria exposed to an antibiotic (method of the invention), strain EC10; type: cell-based
# Procedure: (§1) The retained conditioning device is constituted of two fluidic chambers and two antibiotic concentrations are tested: c0: “Without antibiotic” and “Resistance test”.
# Let c1 be the concentration of gentamicin: c1=8 μg/mL, which corresponds to the doubling of the concentration 4 μg/mL corresponding to the clinical breakpoint as defined by the EUCAST. The objective of this test is to determine whether the bacterium is considered as resistant according to the definitions provided by the EUCAST.
# A solution containing the bacteria to be tested is used as a test sample. This solution is obtained by suspending 5.10^7 CFU/mL in order to have a concentration potentially encountered in a clinical sample, for example a urine collection. This bacteria solution is brought into contact with the interface I of the device functionalized by adsorbing polyethylenimine (PEI) (generic capture). After a capture time of 10 minutes allowing the bacteria to come into contact with the functionalization, the interface I is washed with a water solution, this optional step allowing to eliminate the surplus of uncaptured bacteria still in solution. The physiological medium retained in this example is constituted of a poorly enriched mixture of Bouillon TSB-T Trypcase Soy broth (for example of the reference 42100 of bioMérieux) and of PBS 10× (for example obtained from the PBS tablets of the reference A9162, 0100 of the brand AppliChem) in a 1:9 ratio. After dividing this physiological medium into two fractions, an amount of gentamicin (for example of the reference G1397-10ML of Sigma-Aldrich) is added respectively to each of these fractions, allowing to obtain a different concentration of gentamicin c0 or c1. The solutions of concentrations c0 and c1 produced accordingly are respectively introduced into the chambers C0 or C1. The bacteria captured directly from the sample on the surface I are thus exposed, in a suitable medium, to a different antibiotic concentration depending on the chamber in which they are present.
# The device is then heated in order to reach a temperature of 37° C. for two hours and then placed in measurement position on the micro-spectrometer. The marking of the captured bacteria is carried out by an automatic procedure based on image analysis, by a conventional procedure for detecting particles, acquired by means of the micro-spectrometer camera and a suitable light source. This marking allows acquiring automatically a series of Raman spectra (S0 and S1, respectively) acquired on individual bacteria present in each chamber C0 and C1. The number of spectra to be acquired for constituting a dataset depends on the level of requirement on the performances of the tests to be carried out. […]
# [4] = tested on: Escherichia coli strain ATCC 35421 called "EC21"; experiment: Raman spectroscopy analysis of individual bacteria exposed to an antibiotic (method of the invention), strain EC21; type: cell-based
# Procedure: A test identical to that of Example 1 is conducted on another strain of Escherichia coli, the strain ATCC 35421 called “EC21” allows confirming the discriminatory nature of the measurement.
# In order to illustrate the discriminating power of this method, the same test performed for a strain of Escherichia coli ATCC 35421 resistant to amoxicillin called “EC21” is also shown.
# A solution containing the bacteria to be tested, EC10 or EC21, is used as test sample. This solution is obtained by suspending 5 10^7 CFU/mL in water in order to have a concentration potentially encountered in a clinical sample, for example a urine collection. This bacteria solution is distributed in 5 filter tubes (for example MICROCON (Centrifugal filters) YM100 from Millipore) at a rate of 150 μL per tube. A sufficient amount is added to each of these tubes for the final 250 μL of physiological medium allowing the growth constituted in this example of a mixture of PBS of final concentration of 1× (obtained from the PBS tablets of the reference A9162,0100 of the brand AppliChem), of a nutrient medium TSB 0.1× (for example obtained from Bouillon TSB-T […] A8523-10ML of Sigma-Aldrich) as follows: • c0=0 μg/mL • c1=2 μg/mL • c2=4 μg/mL • c3=8 μg/mL • c4=16 μg/mL
# The 5 tubes obtained accordingly are incubated for 2 hours at 37° C. with stirring. Centrifugation at 1200 g for 8 minutes using a centrifuge adapted to the used containers (for example the model 8415C of the brand Eppendorf) then allows retrieving a bacterial pellet on the filter portion of each tube and eliminating the medium. The bacterial pellets are respectively resuspended in water in order to carry out a washing before being again pelletized by centrifugation (1200 g for 10 minutes) always on the filter portion of the tube. These pellets are distributed on a glass slide of the Marienfield type constituting the interface I (not functionalized in this configuration) by means of a swab in corresponding chambers noted C0 to C4. […]
# [5] = tested on: Escherichia coli strain ATCC 25922; conditions: cited from earlier work
# [6] = tested on: Staphylococcus aureus strain ATCC 25923 called "SA44"; experiment: Reference methods (bioMérieux ETEST OX 256 or VITEK card P631), strain SA44; type: cell-based
# [7] = tested on: Staphylococcus aureus strain ATCC 25923 called "SA44"; experiment: Raman spectroscopy analysis of individual bacteria exposed to an antibiotic (method of the invention), strain SA44; type: cell-based
# Procedure: as §1
# Let c1 be the concentration of oxacillin: c1=8 μg/mL which corresponds to multiplying by a factor of 32 the concentration of 0.25 μg/mL which corresponds to the clinical breakpoint as defined by the EUCAST. The objective of this test is to determine whether the bacterial strain is considered as resistant according to the definitions provided by the EUCAST.
# A solution containing the bacteria to be tested is used as a test sample. This solution is obtained by suspending 5.10^7 CFU/mL in order to have a concentration potentially encountered in a clinical sample, for example a urine collection. The bacteria can come from a culture in a liquid medium or a culture in agar medium in Petri dish. This bacteria solution is brought into contact with the interface I of the device functionalized by adsorbing polyethylenimine (PEI) (generic capture). After a capture time of 10 minutes allowing the bacteria to come into contact with the functionalization, the interface I is washed with a water solution, this optional step allowing to eliminate the surplus of uncaptured bacteria still in solution. […]
compound,measurement,setting,value
gentamicin,phenotype according to the EUCAST / reference,[1],resistant
same,"MIC (reference methods, MICREF)",[1]; reference methods,> 256 µg/mL
same,"MIC (reference methods, MICREF)",[2]; ETEST / VITEK card N233,1 µg/mL
same,phenotype according to the EUCAST / reference,[2],not resistant
same,"typical MIC, or epidemiological cut-off of the species",E. coli,2 μg/mL
same,sensitivity phenotype according to the invention,[3]; Raman test at 8 μg/mL,sensitive
same,"percentage of test samples classified as ""ATB effect""","[3]; gentamicin 8 μg/mL, 2 hours at 37° C., N=5 spectra per sample, M=294, SVM classifier",97.1%
same,percentage of performed tests that do not show a characteristic effect profile of the antibiotic agent,"[4]; gentamicin 8 μg/mL, N=5, M=133",100%
CC1(C)S[C@@H]2[C@H](NC(=O)[C@H](N)c3ccc(O)cc3)C(=O)N2[C@H]1C(=O)O [amoxicillin],MIC,"[1]; Escherichia coli, ATCC35421, read-out: MIC (reference methods, MICREF)",256 µg/mL
same,phenotype according to the EUCAST / reference,[1],resistant
same,EUCAST range of MIC variations (acceptable variation range),[5]; quality control range,2 to 8 µg/mL
same,MIC,"[2]; Escherichia coli, ATCC25922, read-out: MIC (reference methods, MICREF)",6 µg/mL
same,phenotype according to the EUCAST / reference,[2],sensitive
same,MIC,"[3]; Escherichia coli, ATCC25922, Raman, 2 hours at 37° C. incubation, read-out: MIC assigned by the method of the invention",4 to 8 µg/mL
same,MIC,"[4]; Escherichia coli, ATCC35421, Raman, tested 0, 4 and 8 μg/mL, N=11, read-out: MIC assigned by the method of the invention",> 8 µg/mL
same,category assigned to the vast majority of the measured groups,"[4]; amoxicillin 4 and 8 μg/mL, N=11, FIG. 7",without ATB effect
Cc1onc(-c2ccccc2)c1C(=O)N[C@@H]1C(=O)N2[C@@H]1SC(C)(C)[C@@H]2C(=O)O [oxacillin],MIC,"[6]; Staphylococcus aureus, ATCC25923, ETEST OX 256 or VITEK card P631",0.25 µg/mL
same,phenotype according to the EUCAST / reference,[6]; from reference MIC,not resistant
same,sensitivity phenotype according to the invention,[7]; Raman test at 8 μg/mL,sensitive
same,"percentage of test samples classified as ""ATB effect""","[7]; oxacillin 8 μg/mL, 2 hours at 37° C., N=9, M=337, FIG. 12 (liquid medium cultures)",greater than 97%
O=C(O)c1cn(C2CC2)c2cc(N3CCNCC3)c(F)cc2c1=O [ciprofloxacin],EUCAST known MIC,[5],0.008 µg/mL
same,concentrations at which an antibiotic effect is detected,"[3]; Raman, distance to gentamicin reference signature, tested 0, 0.005, 0.015, 0.064 μg/mL",greater than 0.005 μg/mL

# From patent US10704075B2, “Method for determining the reaction of a microorganism to its exposure to a chemical compound” (bioMérieux, priority 2015, dated 2020)
